Experimental data published in PMC9367663 (Journal of Enzyme Inhibition and Medicinal Chemistry, 2022).
Where two headings read alike, the source gives them in different places.

Test system: VSV*ΔG(Luc)-S virus harbouring the spike from the D614G variant
Assay type: cell-based, SARS-CoV-2

On1ccccc1=S [a, 1-hydroxy-2(1H)-pyridinethione]
inhibition of viral entry (0.5 µM): 15.33% | inhibition of viral entry (1 µM): 16.67% | inhibition of viral entry (10 µM): 74.34% | inhibition of viral entry (30 µM): 86.41% | IC50 (read-out: IC50 viral entry): 5.19 µM
